Source: patent EP0197829A1, “5H-pyrido[3',4':4,5]pyrrolo[3,2-c]pyridine derivatives, process for their preparation and their antitunour activity” (SANOFI, priority 1985, dated 1986)
Several values for one entry are separate records, joined by “and”; a condition that tells them apart may be missing. Identical values can stand only once. Like-named read-outs stand apart in the source and are kept apart here.

Tests used:
[1] = system: lignée tumorale leucémie L 1210; assay: In vitro cytotoxicity on L 1210 leukemia cell culture; format: cell-based; conditions: Mus musculus, L1210; concentration inhibiting cell proliferation by 50 p. 100, after 48 h contact; read-out: ID 50 (the source's name)
Description: 1) In vitro : (PAOLETTI et al., Chem. Biol. Interaction, 1979, 25, 45-58).
L'activité cytotoxique des composés de l'invention a été évaluée par des essais in vitro. Ces essais consistent à ajouter des concentrations croissantes du composé à tester à une culture cellulaire de la lignée tumorale leucémie L 1210 en phase exponentielle de croissance. Les cellules sont incubées à 37°C dans une étuve à C02 et comptées toutes les 24 heures. Le calcul de l'ID 50 (concentration du produit exprimée en micromole 1^-1 qui inhibe la prolifération cellulaire à 50 p. 100) est effectué après 48 heures de contact. Ainsi déterminées, les ID 50 des composés de l'invention sont rassemblées dans le tableau I ci-après : […]

leucémie P 388 = format: in vivo, souris hybrides CDF1
Excerpt: (§1) L'activité antitumorale a été testée in vivo sur différentes tumeurs selon le protocole général suivant : Toutes les souris mâles ou femelles sont inoculées par voie intrapéritonéale au jour Jo avec une quantité déterminée de cellules tumorales viables, variable selon la tumeur.
(§2) Elles sont ensuite réparties en différents lots. Chaque lot correspondant aux animaux traités par le produit à tester à une dose déterminée est composé de lO souris. Dans ce cas, le produit à tester est dissous dans l'eau distillée et il est administré, pendant n jours (J1-Jn) variables selon le protocole choisi, par voie intrapéritonéale à raison de 0,1 ml par lO g de poids des souris traitées, les doses du produit administré étant précisées dans les tableaux ci-dessous.
(§3) Le lot "Contrôle négatif", correspondant aux animaux qui ne sont pas traités par un produit, comprend 2 √N animaux, N étant égal au nombre total de souris traitées par un produit.
(§4) Enfin, tous lés essais sont conduits parallèlement à l'étude d'un lot appelé "Contrôle positif" de 10 animaux qui est traité par une molécule active, variable selon le protocole choisi, dans les mêmes conditions que les lots traités par le produit à tester, afin de valider l'essai.
(§5) L'activité antitumorale est évaluée en considérant l'augmentation du temps de survie des animaux traités par rapport à celui des animaux du lot "Contrôle négatif" selon la formule : • Jour médian de survie des animaux traités à une T/C = dose donnée de produit x 100 • Jour médian de survie des animaux "Contrôle négatif"
(§6) Un composé est considéré comme étant actif lorsque la valeur du rapport T/C est égale ou supérieure à 125 % selon le protocole retenu. Il est toxique lorsque cette valeur est égale ou inférieure à 85 %. Le produit est également considéré comme toxique lorsque la variation pondérale, exprimée en grammes et calculée par la formule : Poids moyen du lot mesuré au jour 5 - poids moyen du même lot au jour 1, est égale ou inférieure à -4g . a) Test de la leucémie P 388 (GERAN et al., Cancer Chemother, 1972, 2, 07-57).
Les essais sont effectués avec des souris hybrides CDF1 inoculées par voie intrapéritonéale avec […] leucémiques de la lignée P 388. Le composé à tester est administré pendant 5 jours (Jl-J5). Le contrôle positif du test est le 5-fluorouracile qui est administré dans les mêmes conditions.
[…] Un composé est considéré comme étant actif lorsque le rapport T/C est supérieur à 127 %.

in vivo = assay: in vivo; parameters: species or system souris; conditions: mouse, ip
Description: Ainsi, l'administration à des souris hybrides CDF1 saines, en une injection unique par la voie intrapéritonéale, de doses croissantes des composés à tester (5 mg, 10 mg, 20 mg, 40 mg/kg) a permis de constater que, à ces doses, les produits étaient parfaitement tolérés puisque le taux de survivants était de 100 p. 100.
Dans les mêmes conditions, administrés à des souris BDF1 saines, les taux de survivants étaient de 100 p. 100 jusqu'à 100 mg/kg pour les dérivés 1, 3 et 9 et jusqu'à 200 mg/kg pour les dérivés 2 et 8.

mélanome B 16 = assay: B 16 melanoma test in vivo; parameters: species or system souris hybrides BDF1; Jour médian de survie: unit not given here; conditions: for Survivants: at day J 60
Excerpt: as §1, §2, §3, §4, §5, §6
c) Test du mélanome B 16 (GERAN et al., Cancer Chemother, 1972, 2, 07-57).
Les essais sont effectués avec des souris hybrides BDF1 inoculées avec O,5 ml d'un homogénat de mélanome B 16 réalisé à partir de 1 g de tumeur dans 10 ml de sérum physiologique. Le composé à tester est administré pendant 9 jours (J1-J9). Le contrôle positif du test est le Cis- platine administré dans les mêmes conditions. Le nombre d'animaux survivants est évalué au jour J 60. Un composé est considéré comme étant actif lorsque le rapport T/C est supérieur ou égal à 125 %.

réticulosarcome M5-M5076 = assay: M5-M5076 reticulosarcoma test in vivo; parameters: species or system souris hybrides BDF1; conditions: 160 mg/kg i.p. J1, 5, 9, 13, 17
Excerpt: as §1, §2, §3, §4, §5, §6
d) Test du réticulosarcome M5-M5076.
Les essais sont effectués avec des souris hybrides BDF1 inoculées avec 10^6 cellules de la lignée M5-M5076. Le composé à tester est administré 5 fois successivement de façon séquentielle (Jl, 5, 9, 13, 17). Le contrôle positif du test est le cyclophosphamide administré dans les mêmes conditions. Le nombre d'animaux survivants est évalué au jour J 75. Un composé est considéré comme actif lorsque le rapport T/C est supérieur ou égal à 125 %.

leucémie L 1210 = assay: L 1210 leukemia test in vivo; parameters: species or system souris hybrides CDF1; conditions: 20 mg/kg i.p. J1-J5
Excerpt: as §1, §2, §3, §4, §5, §6
b) Test de la leucémie L 1210 (GERAN et al., Cancer Chemother, 1972, 2, 07-57).
Les essais sont effectués avec des souris hybrides CDF1 inoculées avec 10^5 cellules leucémiques de la lignée L 1210. Le composé à tester est administré pendant 5 jours (J1-J5). Le contrôle positif du test est le 5-fluorouracile administré dans les mêmes conditions. Le nombre d'animaux survivants est évalué au jour J 60. Un composé est considéré comme étant actif lorsque le rapport T/C est supérieur ou égal à 125 %.

[2] = 5 mg/kg i.p. J1-J5, at day J 40
[3] = 10 mg/kg i.p. J1-J5, at day J 40
[4] = 20 mg/kg i.p. J1-J5, at day J 40
[5] = 40 mg/kg i.p. J1-J5, at day J 40
[6] = 80 mg/kg i.p. J1-J5, at day J 40

CCN(CC)CCCNc1ncc(C)c2c1c1cnccc1n2CC [Dérivé N° 5, [(diéthylamino-3 propyl-1)amino]-1 méthyl-4 éthyl-5 5-H pyrido[3',4':4,5]pyrrolo[3,2-c]pyridine]
IC50 [1]: 1400 nM

CCCN(CCC)CCCNc1ncc(C)c2[nH]c3ccncc3c12 [Dérivé N° 12, [(dipropylamino-3 propyl-1)amino]-1 méthyl-4 5-H pyrido[3',4':4,5]pyrrolo[3,2-c]pyridine]
IC50 [1]: 8500 nM

CCN(CC)CCCCNc1ncc(C)c2c1c1cnccc1n2C [Dérivé N° 10, [(diéthylamino-4 butyl-1)amino]-1 diméthyl-4,5 5-H pyrido[3',4':4,5]pyrrolo[3,2-c]pyridine]
IC50 [1]: 2000 nM

Cc1cnc(NCCCN(C)C)c2c3cnccc3n(C)c12 [Dérivé N° 9, diméthyl-4,5 [(diméthylamino-3 propyl-1)-amino]-1 5-H pyrido[3',4':4,5]pyrrolo[3,2-c]pyridine]
IC50 [1]: 300 nM
Jour médian de survie (leucémie P 388; 5 mg/kg i.p. J1-J5): 15,75
T/C % (leucémie P 388; 5 mg/kg i.p. J1-J5): 136%
Survivants (leucémie P 388; [2]): 0
Jour médian de survie (leucémie P 388; 10 mg/kg i.p. J1-J5): 17,38
T/C % (leucémie P 388; 10 mg/kg i.p. J1-J5): 150%
Survivants (leucémie P 388; [3]): 0
Jour médian de survie (leucémie P 388; 20 mg/kg i.p. J1-J5): 19,33
T/C % (leucémie P 388; 20 mg/kg i.p. J1-J5): 167%
Survivants (leucémie P 388; [4]): 0
Jour médian de survie (leucémie P 388; 40 mg/kg i.p. J1-J5): 20,0
T/C % (leucémie P 388; 40 mg/kg i.p. J1-J5): 173%
Survivants (leucémie P 388; [5]): 0
Jour médian de survie (leucémie P 388; 80 mg/kg i.p. J1-J5): 8,25
T/C % (leucémie P 388; 80 mg/kg i.p. J1-J5): 71%
Survivants (leucémie P 388; [6]): 0
survival (in vivo; 100 mg/kg): 100%

[NH2][Pt]([NH2])([Cl])[Cl] [Cis-platine, reference compound]
Jour médian de survie (mélanome B 16; 0,5 mg/kg i.p. J1-J9): 30 and 31,0 and 40,0
T/C % (mélanome B 16; 0,5 mg/kg i.p. J1-J9): 126% and 133% and 141%
Survivants (mélanome B 16; 0,5 mg/kg i.p. J1-J9): 0

CCN(CC)CCCNc1ncc(C)c2[nH]c3ccncc3c12 [Dérivé N° 1, [(diéthylamino-3 propyl-1)amino]-1 méthyl-4 5-H pyrido[3',4':4,5]pyrrolo[3,2-c]pyridine]
IC50 [1]: 340 nM
Jour médian de survie (mélanome B 16; 5 mg/kg i.p. J1-J9): 28,25
T/C % (mélanome B 16; 5 mg/kg i.p. J1-J9): 119%
Survivants (mélanome B 16; 5 mg/kg i.p. J1-J9): 0
Jour médian de survie (mélanome B 16; 10 mg/kg i.p. J1-J9): 30,0
T/C % (mélanome B 16; 10 mg/kg i.p. J1-J9): 126%
Survivants (mélanome B 16; 10 mg/kg i.p. J1-J9): 0
Jour médian de survie (mélanome B 16; 20 mg/kg i.p. J1-J9): 34,25
T/C % (mélanome B 16; 20 mg/kg i.p. J1-J9): 144%
Survivants (mélanome B 16; 20 mg/kg i.p. J1-J9): 0
Jour médian de survie (leucémie P 388; 5 mg/kg i.p. J1-J5): 14,1
T/C % (leucémie P 388; 5 mg/kg i.p. J1-J5): 132%
Survivants (leucémie P 388; [2]): 0/10
Jour médian de survie (leucémie P 388; 10 mg/kg i.p. J1-J5): 14,6
T/C % (leucémie P 388; 10 mg/kg i.p. J1-J5): 136%
Survivants (leucémie P 388; [3]): 0/10
Jour médian de survie (leucémie P 388; 20 mg/kg i.p. J1-J5): 15,9
T/C % (leucémie P 388; 20 mg/kg i.p. J1-J5): 148%
Survivants (leucémie P 388; [4]): 0/10
Jour médian de survie (leucémie P 388; 40 mg/kg i.p. J1-J5): 16,6
T/C % (leucémie P 388; 40 mg/kg i.p. J1-J5): 155%
Survivants (leucémie P 388; [5]): 0/10
Jour médian de survie (leucémie P 388; 50 mg/kg i.p. J1-J5): 3,1
T/C % (leucémie P 388; 50 mg/kg i.p. J1-J5): 26%
Survivants (leucémie P 388; 50 mg/kg i.p. J1-J5, at day J 40): 0/10
survival (in vivo; 100 mg/kg): 100%

Cc1cnc(NCCNCCO)c2c1[nH]c1ccncc12 [Dérivé N° 2, [[[(hydroxy-2 éthyl-l)amino]-2 éthyl-1]-amino]-1 méthyl-4 5-H pyrido[3',4':4,5]pyrrolo[3,2-c]pyridine]
survival (in vivo; 200 mg/kg): 100%

Cc1cnc(NCCCN(C)C)c2c1[nH]c1ccncc12 [Dérivé N° 3 bis, [(diméthylamino-3 propyl-1)amino]-1 méthyl-4 5-H pyrido[3',4':4,5]pyrrolo[3,2-c]pyridine]
IC50 [1]: 160 nM
Jour médian de survie (leucémie P 388; 5 mg/kg i.p. J1-J5): 15,83
T/C % (leucémie P 388; 5 mg/kg i.p. J1-J5): 145%
Survivants (leucémie P 388; [2]): 0/10
Jour médian de survie (leucémie P 388; 10 mg/kg i.p. J1-J5): 17,13
T/C % (leucémie P 388; 10 mg/kg i.p. J1-J5): 156%
Survivants (leucémie P 388; [3]): 0/10
Jour médian de survie (leucémie P 388; 20 mg/kg i.p. J1-J5): 20,33
T/C % (leucémie P 388; 20 mg/kg i.p. J1-J5): 186%
Survivants (leucémie P 388; [4]): 0/10
Jour médian de survie (leucémie P 388; 40 mg/kg i.p. J1-J5): 20,25
T/C % (leucémie P 388; 40 mg/kg i.p. J1-J5): 184%
Survivants (leucémie P 388; [5]): 0/10
Jour médian de survie (leucémie P 388; 50 mg/kg i.p. J1-J5): 22
T/C % (leucémie P 388; 50 mg/kg i.p. J1-J5): 181%
Survivants (leucémie P 388; 50 mg/kg i.p. J1-J5, à J 42): 1/10 à J 42
Jour médian de survie (leucémie P 388; 80 mg/kg i.p. J1-J5): 19,88
T/C % (leucémie P 388; 80 mg/kg i.p. J1-J5): 181%
Survivants (leucémie P 388; [6]): 0/10

CCCN(CCC)CCCNc1ncc(C)c2c1c1cnccc1n2C [Dérivé N° 13, diméthyl-4,5[(dipropylamino-3 propyl-1)ami-no]-l 5-H pyrido[3',4':4,5]pyrrolo[3,2-c]pyridine]
IC50 [1]: 3200 nM

O=P1(N(CCCl)CCCl)NCCCO1 (centres unmarked) [Cyclophosphamide, cyclophosphamide, reference compound]
Jour médian de survie (réticulosarcome M5-M5076): > 60 and > 71
T/C % (réticulosarcome M5-M5076): >229% and >246%
Survivants (réticulosarcome M5-M5076; at day J 75): 9 and 6

O=c1[nH]cc(F)c(=O)[nH]1 [Fluorouracile, 5-fluorouracile, reference compound]
Survivants (leucémie P 388; [4]): 0/10 and 0
Jour médian de survie (leucémie L 1210): 16,0 and 18
T/C % (leucémie L 1210): 178% and 195%
Survivants (leucémie L 1210; at day J 60): 0
